Tested on: MPNST multicellular tumor spheroids, viability % test/control
Assay: Anticancer human tumor MPNST cell line growth inhibition;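 note: spheroids exposed to agents for seven days after three days of growth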;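 for viability, T/C: luminescence signal used as surrogate for viable cell amount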
Conditions: for IC50: curve of first compound; for viability, T/C: stronger effect = lower value
How it was run: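 Complex spheroids of malignant cells with endothelial cells and mesenchymal stem cells; agents alone or combined, from near clinical Cmax (or 10 microM if unknown) down in half-log steps, 0.25% DMSO final.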

[1] = second compound 30 pM, first compound 0.0316 µM
[2] = second compound 30 pM, first compound 0.1 µM
[3] = second compound 30 pM, first compound 0.316 µM
[4] = second compound 30 pM, first compound 1 µM
[5] = second compound 30 pM, first compound 3.16 µM
[6] = second compound 30 pM, first compound 10 µM
[7] = second compound 94.9 pM, first compound 0.0316 µM
[8] = second compound 94.9 pM, first compound 0.1 µM
[9] = second compound 94.9 pM, first compound 0.316 µM
[10] = second compound 94.9 pM, first compound 1 µM
[11] = second compound 94.9 pM, first compound 3.16 µM
[12] = second compound 94.9 pM, first compound 10 µM
[13] = second compound 0.0003 µM, first compound 0.0316 µM
[14] = second compound 0.0003 µM, first compound 0.1 µM
[15] = second compound 0.0003 µM, first compound 0.316 µM
[16] = second compound 0.0003 µM, first compound 1 µM
[17] = second compound 0.0003 µM, first compound 3.16 µM
[18] = second compound 0.0003 µM, first compound 10 µM
[19] = second compound 0.000949 µM, first compound 0.0316 µM
[20] = second compound 0.000949 µM, first compound 0.1 µM
[21] = second compound 0.000949 µM, first compound 0.316 µM
[22] = second compound 0.000949 µM, first compound 1 µM
[23] = second compound 0.000949 µM, first compound 3.16 µM
[24] = second compound 0.000949 µM, first compound 10 µM
[25] = second compound 0.003 µM, first compound 0.0316 µM
[26] = second compound 0.003 µM, first compound 0.1 µM
[27] = second compound 0.003 µM, first compound 0.316 µM
[28] = second compound 0.003 µM, first compound 1 µM
[29] = second compound 0.003 µM, first compound 3.16 µM
[30] = second compound 0.003 µM, first compound 10 µM

| Compound | IC50 (second compound 30 pM) [nM] | IC50 (second compound 94.9 pM) [nM] | IC50 (second compound 0.0003 µM) [nM] | IC50 (second compound 0.000949 µM) [nM] | IC50 (second compound 0.003 µM) [nM] | viability, T/C [1] [%] | viability, T/C [2] [%] | viability, T/C [3] [%] | viability, T/C [4] [%] | viability, T/C [5] [%] | viability, T/C [6] [%] | viability, T/C [7] [%] | viability, T/C [8] [%] | viability, T/C [9] [%] | viability, T/C [10] [%] | viability, T/C [11] [%] | viability, T/C [12] [%] | viability, T/C [13] [%] | viability, T/C [14] [%] | viability, T/C [15] [%] | other results |
| --- | --- | --- | --- | --- | --- | --- | --- | --- | --- | --- | --- | --- | --- | --- | --- | --- | --- | --- | --- | --- | --- |
| CC1COCCN1c1cc(-c2ccnn2C)c2ccnc(-c3ccn[nH]3)c2n1 (stereo not given) + COc1cc2c(cc1O)CCNC21CSC2c3c(OC(C)=O)c(C)c4c(c3C(COC1=O)N1C(O)C3Cc5cc(C)c(OC)c(O)c5C(C21)N3C)OCO4 | < 31.6 | < 31.6 | < 31.6 | < 31.6 | < 31.6 | 47.3 | 48.1 | 42 | 39.2 | 31.1 | 25.6 | 47.8 | 44.8 | 39.4 | 33 | 29.2 | 25.6 | 47.8 | 44.9 | 38.7 | viability, T/C [16]: 36.9%; viability, T/C [17]: 28.8%; viability, T/C [18]: 24.6%; viability, T/C [19]: 45.4%; viability, T/C [20]: 41.2%; viability, T/C [21]: 39.4%; viability, T/C [22]: 31.3%; viability, T/C [23]: 24.2%; viability, T/C [24]: 20.7%; viability, T/C [25]: 12.2%; viability, T/C [26]: 11.1%; viability, T/C [27]: 10.5%; viability, T/C [28]: 6.65%; viability, T/C [29]: 5.18%; viability, T/C [30]: 4.99% |
| COc1cc(C)[nH]c(=O)c1CN1CCc2c(Cl)cc(C(OC)C3COC3)c(Cl)c2C1=O (stereo not given) + COc1cc2c(cc1O)CCNC21CSC2c3c(OC(C)=O)c(C)c4c(c3C(COC1=O)N1C(O)C3Cc5cc(C)c(OC)c(O)c5C(C21)N3C)OCO4 | > 10000 | > 10000 | > 10000 | < 31.6 | < 31.6 | 73.7 | 77.4 | 74.5 | 84.8 | 81 | 90.3 | 94.7 | 78.4 | 86.4 | 77.5 | 83.2 | 69.9 | 79 | 68.8 | 91.7 | viability, T/C [16]: 82.5%; viability, T/C [17]: 69.8%; viability, T/C [18]: 60.6%; viability, T/C [19]: 47.6%; viability, T/C [20]: 46%; viability, T/C [21]: 45.3%; viability, T/C [22]: 42.8%; viability, T/C [23]: 42.6%; viability, T/C [24]: 45.4%; viability, T/C [25]: 9.08%; viability, T/C [26]: 11.7%; viability, T/C [27]: 12.8%; viability, T/C [28]: 5.61%; viability, T/C [29]: 7.75%; viability, T/C [30]: 6.1% |
